Assay results taken from patent US11932612B1, “6-(5-(3-fluorophenyl)-4-phenyl-4H-1,2,4-triazol-3-ylthio)hexanoic acid as an antimicrobial compound” (KING FAISAL UNIVERSITY, priority 2023, dated 2024).

Assays:
[1] = tested on: Staphylococcus aureus; assay: Agar plate disc-diffusion, antibacterial inhibition zone; type: cell-based; conditions: nutrient agar, 37° C., 48 h, DMSO zone subtracted
Method: (§1) The agar plate disc-diffusion method was applied. […] The discs were then placed onto the surface of agar plates (nutrient agar for bacteria and Sabouraud's dextrose agar for fungi) seeded with the test organism. Each plate contained 15 mLof the agar medium, previously seeded with 0.2 mL of the broth culture of each organism pregrown for 18 h. The plates were incubated at 37° C. for 48 h, and 72 h for fungi. The inhibition zones was measured in mm. Discs impregnated with DMSO were used as a control, and its inhibition zone was subtracted from the tested compound actual inhibition zone.

[2] = tested on: Pseudomonas aeruginosa; assay: as above; type: cell-based; conditions: nutrient agar, 37° C., 48 h, DMSO zone subtracted
Method: as §1

[3] = tested on: Bacillus cereus; assay: as above; type: cell-based; conditions: nutrient agar, 37° C., 48 h, DMSO zone subtracted
Method: as §1

[4] = tested on: Escherichia coli; assay: as above; type: cell-based; conditions: nutrient agar, 37° C., 48 h, DMSO zone subtracted
Method: as §1

[5] = tested on: Chrysosporium keratinophilum; assay: Agar plate disc-diffusion, antifungal inhibition zone; type: cell-based; conditions: Sabouraud's dextrose agar, 37° C., 72 h, DMSO zone subtracted
Method: as §1

[6] = tested on: Aspergillus flavus; assay: as above; type: cell-based; conditions: Sabouraud's dextrose agar, 37° C., 72 h, DMSO zone subtracted
Method: as §1

[7] = A = concentration of comp. = 10,000 μL
[8] = B = concentration of comp. = 30,000 μL
[9] = C = concentration of comp. = 50,000 μL

## O=C(O)CCCCCSc1nnc(-c2cccc(F)c2)n1-c1ccccc1 [III, 6-(5-(3-fluorophenyl)-4-phenyl-4H-1,2,4-triazol-3-ylthio)hexanoic acid]
[1]; [7]
  inhibition zone, Staphylococcus aureus: 22 mm
[1]; [8]
  inhibition zone, Staphylococcus aureus: 25 mm
[1]; [9]
  inhibition zone, Staphylococcus aureus: 30 mm
[2]; [7]
  inhibition zone, Pseudomonas aeruginosa: 24 mm
[2]; [8]
  inhibition zone, Pseudomonas aeruginosa: 26 mm
[2]; [9]
  inhibition zone, Pseudomonas aeruginosa: 45 mm
[3]; [7]
  inhibition zone, Bacillus Cereus: 26 mm
[3]; [8]
  inhibition zone, Bacillus Cereus: 30 mm
[3]; [9]
  inhibition zone, Bacillus Cereus: 41 mm
[4]; [7]
  inhibition zone, Escherichia coli: 27 mm
[4]; [8]
  inhibition zone, Escherichia coli: 34 mm
[4]; [9]
  inhibition zone, Escherichia coli: 56 mm
[5]; [7]
  inhibition zone, Chrysosporium keratinophilum: 25 mm
[5]; [8]
  inhibition zone, Chrysosporium keratinophilum: 28 mm
[5]; [9]
  inhibition zone, Chrysosporium keratinophilum: 46 mm
[6]; [7]
  inhibition zone, Aspergillus flavus: 21 mm
[6]; [8]
  inhibition zone, Aspergillus flavus: 27 mm
[6]; [9]
  inhibition zone, Aspergillus flavus: 37 mm
other
  melting point: 164 °C
